Measured values from ChEMBL document CHEMBL3991601, “The target landscape of clinical kinase drugs” (Science, 2017).
The source made the active and inactive calls.

Columns and labels:
[1] = target: Midasin (Homo sapiens, UniProt Q9NU22)
[2] = target: Protein kinase C alpha type (Homo sapiens, UniProt P17252)
[3] = target: T1, dCTP pyrophosphatase 1 (Homo sapiens, UniProt Q9H773)
T1 sequence (Q9H773 whole entry): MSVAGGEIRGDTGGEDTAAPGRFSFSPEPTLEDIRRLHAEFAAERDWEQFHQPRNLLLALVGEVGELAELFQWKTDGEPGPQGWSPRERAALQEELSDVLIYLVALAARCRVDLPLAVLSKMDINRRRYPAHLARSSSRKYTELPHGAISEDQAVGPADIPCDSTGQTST

[4] = target: T2, Discoidin domain-containing receptor 2 (Homo sapiens, UniProt Q16832)
T2 sequence (Q16832 whole entry): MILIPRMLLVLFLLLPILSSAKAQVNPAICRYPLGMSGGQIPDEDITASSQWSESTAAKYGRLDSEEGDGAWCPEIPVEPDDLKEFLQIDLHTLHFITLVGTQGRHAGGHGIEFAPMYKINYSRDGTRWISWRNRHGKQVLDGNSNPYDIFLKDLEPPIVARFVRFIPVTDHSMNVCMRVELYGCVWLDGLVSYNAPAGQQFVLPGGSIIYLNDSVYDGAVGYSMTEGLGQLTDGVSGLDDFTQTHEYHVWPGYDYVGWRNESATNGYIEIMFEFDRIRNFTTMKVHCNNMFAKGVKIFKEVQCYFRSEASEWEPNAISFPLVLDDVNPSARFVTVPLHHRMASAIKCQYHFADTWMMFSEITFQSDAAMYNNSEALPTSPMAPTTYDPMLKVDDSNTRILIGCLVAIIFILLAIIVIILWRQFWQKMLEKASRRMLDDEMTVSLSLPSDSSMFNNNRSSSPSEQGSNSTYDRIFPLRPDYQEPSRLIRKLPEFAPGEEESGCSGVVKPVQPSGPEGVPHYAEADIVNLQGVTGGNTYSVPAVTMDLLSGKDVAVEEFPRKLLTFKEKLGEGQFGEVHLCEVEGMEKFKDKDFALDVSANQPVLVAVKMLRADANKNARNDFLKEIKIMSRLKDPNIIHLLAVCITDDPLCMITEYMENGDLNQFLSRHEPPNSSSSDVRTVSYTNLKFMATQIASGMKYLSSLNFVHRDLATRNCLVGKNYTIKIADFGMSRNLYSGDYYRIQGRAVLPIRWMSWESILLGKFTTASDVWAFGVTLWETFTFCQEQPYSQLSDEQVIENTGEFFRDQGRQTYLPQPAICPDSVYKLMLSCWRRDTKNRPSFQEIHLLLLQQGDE

[5] = target: T3, Very long-chain specific acyl-CoA dehydrogenase, mitochondrial (Homo sapiens, UniProt P49748)
T3 sequence (P49748 whole entry): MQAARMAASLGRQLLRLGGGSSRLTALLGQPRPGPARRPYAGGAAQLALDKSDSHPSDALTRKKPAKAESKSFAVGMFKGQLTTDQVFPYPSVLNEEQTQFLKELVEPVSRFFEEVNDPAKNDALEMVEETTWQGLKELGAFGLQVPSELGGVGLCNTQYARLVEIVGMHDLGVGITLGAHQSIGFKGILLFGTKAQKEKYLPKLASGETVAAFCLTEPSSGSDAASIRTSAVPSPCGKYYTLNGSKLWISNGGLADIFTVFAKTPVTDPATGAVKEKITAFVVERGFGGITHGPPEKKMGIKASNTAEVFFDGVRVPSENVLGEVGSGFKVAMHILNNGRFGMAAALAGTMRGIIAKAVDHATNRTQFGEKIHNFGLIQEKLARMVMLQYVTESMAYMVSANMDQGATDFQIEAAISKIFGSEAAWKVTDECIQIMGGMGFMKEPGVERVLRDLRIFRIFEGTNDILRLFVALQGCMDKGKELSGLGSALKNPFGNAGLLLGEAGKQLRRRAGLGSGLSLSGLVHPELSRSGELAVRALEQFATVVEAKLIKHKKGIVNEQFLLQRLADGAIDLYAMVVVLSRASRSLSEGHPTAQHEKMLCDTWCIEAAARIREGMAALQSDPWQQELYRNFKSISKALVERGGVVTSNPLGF

[6] = target: Maternal embryonic leucine zipper kinase (Homo sapiens, UniProt Q14680)
Sequence of Maternal embryonic leucine zipper kinase (Q14680 whole entry): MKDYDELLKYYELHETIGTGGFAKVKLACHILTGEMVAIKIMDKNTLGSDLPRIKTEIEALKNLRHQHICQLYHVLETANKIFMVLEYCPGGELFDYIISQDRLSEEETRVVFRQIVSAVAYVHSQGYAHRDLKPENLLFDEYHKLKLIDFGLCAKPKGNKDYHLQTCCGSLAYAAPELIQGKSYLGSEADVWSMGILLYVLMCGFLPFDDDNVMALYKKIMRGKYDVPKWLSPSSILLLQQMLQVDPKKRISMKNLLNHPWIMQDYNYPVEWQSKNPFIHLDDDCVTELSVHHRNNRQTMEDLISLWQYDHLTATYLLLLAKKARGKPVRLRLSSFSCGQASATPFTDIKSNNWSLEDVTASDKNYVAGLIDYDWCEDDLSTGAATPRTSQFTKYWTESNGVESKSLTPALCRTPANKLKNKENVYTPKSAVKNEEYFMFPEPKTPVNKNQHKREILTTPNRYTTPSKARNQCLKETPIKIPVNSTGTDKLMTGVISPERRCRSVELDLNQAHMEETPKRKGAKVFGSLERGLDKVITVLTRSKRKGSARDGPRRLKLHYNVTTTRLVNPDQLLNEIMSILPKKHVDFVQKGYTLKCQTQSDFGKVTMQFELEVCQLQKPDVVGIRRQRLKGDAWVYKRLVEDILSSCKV

[7] = target: T4, NUAK family SNF1-like kinase 2 (Homo sapiens, UniProt Q9H093)
T4 sequence (Q9H093 whole entry): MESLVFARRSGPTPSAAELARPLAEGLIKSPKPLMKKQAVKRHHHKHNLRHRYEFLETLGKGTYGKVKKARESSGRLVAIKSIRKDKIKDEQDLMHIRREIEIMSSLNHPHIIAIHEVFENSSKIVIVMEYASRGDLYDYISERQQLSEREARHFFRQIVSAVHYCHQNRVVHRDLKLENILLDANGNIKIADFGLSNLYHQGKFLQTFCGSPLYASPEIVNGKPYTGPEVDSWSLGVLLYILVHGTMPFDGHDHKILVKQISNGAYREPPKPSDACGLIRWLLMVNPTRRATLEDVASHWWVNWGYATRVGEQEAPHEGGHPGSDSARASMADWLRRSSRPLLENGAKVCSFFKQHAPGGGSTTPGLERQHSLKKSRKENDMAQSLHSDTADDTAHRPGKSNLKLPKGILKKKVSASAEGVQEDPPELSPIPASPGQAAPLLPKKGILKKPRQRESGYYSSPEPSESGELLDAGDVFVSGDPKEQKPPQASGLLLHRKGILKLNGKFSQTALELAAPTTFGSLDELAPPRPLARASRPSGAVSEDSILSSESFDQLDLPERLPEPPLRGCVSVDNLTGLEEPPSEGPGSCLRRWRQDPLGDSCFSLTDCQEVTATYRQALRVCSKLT

[8] = target: Receptor-interacting serine/threonine-protein kinase 3 (Homo sapiens, UniProt Q9Y572)
Sequence of Receptor-interacting serine/threonine-protein kinase 3 (Q9Y572 whole entry): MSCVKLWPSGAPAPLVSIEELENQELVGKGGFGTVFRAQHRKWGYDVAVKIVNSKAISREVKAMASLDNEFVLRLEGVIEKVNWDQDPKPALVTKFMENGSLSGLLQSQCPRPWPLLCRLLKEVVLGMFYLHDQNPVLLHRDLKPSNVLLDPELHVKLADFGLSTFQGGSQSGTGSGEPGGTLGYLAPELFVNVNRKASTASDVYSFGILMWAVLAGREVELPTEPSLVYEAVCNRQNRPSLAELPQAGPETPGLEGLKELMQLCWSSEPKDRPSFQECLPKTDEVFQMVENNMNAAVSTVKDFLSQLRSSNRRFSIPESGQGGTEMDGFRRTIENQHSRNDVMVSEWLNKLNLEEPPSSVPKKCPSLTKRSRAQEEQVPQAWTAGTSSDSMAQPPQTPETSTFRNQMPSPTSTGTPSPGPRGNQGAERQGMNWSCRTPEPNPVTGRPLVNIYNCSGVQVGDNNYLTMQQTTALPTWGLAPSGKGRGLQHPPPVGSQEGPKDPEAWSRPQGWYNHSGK

[9] = target: Dual specificity protein kinase CLK1 (Homo sapiens, UniProt P49759)
Sequence of Dual specificity protein kinase CLK1 (P49759 whole entry): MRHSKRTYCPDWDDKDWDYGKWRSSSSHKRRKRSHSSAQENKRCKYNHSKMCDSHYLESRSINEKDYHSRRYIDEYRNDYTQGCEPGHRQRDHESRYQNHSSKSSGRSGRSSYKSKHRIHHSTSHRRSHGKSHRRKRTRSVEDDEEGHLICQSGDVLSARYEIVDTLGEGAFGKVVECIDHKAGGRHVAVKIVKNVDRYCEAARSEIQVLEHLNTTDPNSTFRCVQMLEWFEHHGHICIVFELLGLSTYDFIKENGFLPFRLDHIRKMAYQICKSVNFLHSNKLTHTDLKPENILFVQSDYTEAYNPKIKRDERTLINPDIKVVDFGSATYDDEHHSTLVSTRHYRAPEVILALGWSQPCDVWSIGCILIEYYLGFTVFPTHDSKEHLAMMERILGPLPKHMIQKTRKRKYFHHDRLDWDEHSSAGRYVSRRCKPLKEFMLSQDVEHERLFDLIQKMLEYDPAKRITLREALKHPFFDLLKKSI
Also: in the data inactive means no Kd found up to 30 µM.

Row | Compound | Kd [1] | Kd [2] | Kd [3] | Kd [4] | Kd [5] | Kd [6] | Kd [7] | Kd [8] | Kd [9]
1 | C[C@@H](Oc1cc(C(=O)Nc2ccc(C(=O)N3CCN(C)CC3)cc2)nnc1N)c1c(Cl)ccc(F)c1Cl | > 30 µM (inactive) | > 30 µM (inactive) | > 30 µM (inactive) | > 30 µM (inactive) | > 30 µM (inactive) | > 30 µM (inactive) | > 30 µM (inactive) | > 30 µM (inactive) | 
2 | C[C@H]1CNCCCN1S(=O)(=O)c1cccc2cncc(F)c12 | > 30 µM (inactive) | > 30 µM (inactive) | > 30 µM (inactive) | > 30 µM (inactive) | > 30 µM (inactive) | > 30 µM (inactive) | > 30 µM (inactive) | > 30 µM (inactive) | 
3 | CC(=O)c1cnc2ccc(-c3cc(Cl)c(O)c(Cl)c3)nc2c1N[C@H]1CC[C@H](CN(C)C)CC1 | > 30 µM (inactive) |  | > 30 µM (inactive) | 2.28 µM (active) | > 30 µM (inactive) |  | > 30 µM (inactive) | 0.324 µM | 0.011 µM (active)
4 | COc1cc(Nc2ncc3c(n2)-c2ccc(Cl)cc2C(c2c(F)cccc2OC)=NC3)ccc1C(=O)O [ALISERTIB] | > 30 µM (inactive) | > 30 µM (inactive) | > 30 µM (inactive) | > 30 µM (inactive) | > 30 µM (inactive) |  | > 30 µM (inactive) | > 30 µM (inactive) | > 30 µM (inactive)
5 | O=C(Nc1c[nH]nc1-c1nc2cc(CN3CCOCC3)ccc2[nH]1)NC1CC1 [AT-9283] | > 30 µM (inactive) |  | > 30 µM (inactive) | > 30 µM (inactive) | > 30 µM (inactive) |  | > 30 µM (inactive) | > 30 µM (inactive) | 2.04 µM (active)
6 | CNC(=O)c1ccccc1Sc1ccc2c(/C=C/c3ccccn3)n[nH]c2c1 [AXITINIB] | > 30 µM (inactive) | > 30 µM (inactive) | > 30 µM (inactive) |  | > 30 µM (inactive) |  |  | > 30 µM (inactive) | 
7 | COc1cc([C@@H]2c3cc4c(cc3[C@H](O)[C@H]3COC(=O)[C@@H]23)OCO4)cc(OC)c1OC [AXL-1717] | > 30 µM (inactive) | > 30 µM (inactive) | > 30 µM (inactive) | > 30 µM (inactive) | > 30 µM (inactive) | > 30 µM (inactive) | > 30 µM (inactive) | > 30 µM (inactive) | 
8 | Cn1cc(C2=C(c3cn(C4CCN(Cc5ccccn5)CC4)c4ccccc34)C(=O)NC2=O)c2ccccc21 [ENZASTAURIN] | > 30 µM (inactive) |  | > 30 µM (inactive) |  | > 30 µM (inactive) |  |  | > 30 µM (inactive) | 
9 | Cc1nc2cc(-n3ncc(C(=O)c4cc5ccccc5[nH]4)c3N)ccc2[nH]1 [FGFR INHIBITOR DEBIO 1347] | > 30 µM (inactive) | > 30 µM (inactive) | > 30 µM (inactive) | > 30 µM (inactive) |  | > 30 µM (inactive) | > 30 µM (inactive) | > 30 µM (inactive) | 
10 | O=C(Nc1nc2cccc(-c3ccc(CN4CCS(=O)(=O)CC4)cc3)n2n1)C1CC1 [FILGOTINIB] | > 30 µM (inactive) | > 30 µM (inactive) | > 30 µM (inactive) | > 30 µM (inactive) | > 30 µM (inactive) | > 30 µM (inactive) | > 30 µM (inactive) | > 30 µM (inactive) | 
11 | Cc1[nH]c(/C=C2\C(=O)Nc3ccccc32)c(C)c1CCC(=O)O [ORANTINIB] | > 30 µM (inactive) | > 30 µM (inactive) | > 30 µM (inactive) | > 30 µM (inactive) | > 30 µM (inactive) |  |  | > 30 µM (inactive) | > 30 µM (inactive)
12 | N#CC[C@H](C1CCCC1)n1cc(-c2ncnc3[nH]ccc23)cn1 [RUXOLITINIB] | > 30 µM (inactive) | 16.5 µM (active) | > 30 µM (inactive) |  | > 30 µM (inactive) |  |  | > 30 µM (inactive) | 
13 | Cc1cc(Nc2ncnc3ccc(NC4=NC(C)(C)CO4)cc23)ccc1Oc1ccn2ncnc2c1 [TUCATINIB] | > 30 µM (inactive) | > 30 µM (inactive) | > 30 µM (inactive) | > 30 µM (inactive) | > 30 µM (inactive) | > 30 µM (inactive) | > 30 µM (inactive) | 1.06 µM | 
14 | Cn1ncc(Cl)c1-c1cc(C(=O)N[C@H](CN)Cc2ccc(F)c(F)c2)oc1Cl [UPROSERTIB] | > 30 µM (inactive) | 1.67 µM (active) | > 30 µM (inactive) | > 30 µM (inactive) | > 30 µM (inactive) | 0.24 µM | > 30 µM (inactive) | > 30 µM (inactive) | 

Next, values leading:

Row | Kd [1] | Kd [2] | Kd [3] | Kd [4] | Kd [5] | Kd [6] | Kd [7] | Kd [8] | Kd [9] | Compound
15 | > 30 µM (inactive) | > 30 µM (inactive) | > 30 µM (inactive) | > 30 µM (inactive) | > 30 µM (inactive) | > 30 µM (inactive) | > 30 µM (inactive) | 6.45 µM (active) |  | Nc1ncnc2c1c(-c1cccc(OCc3ccccc3)c1)cn2[C@H]1C[C@@H](CN2CCC2)C1 [AEW-541]
16 | > 30 µM (inactive) | > 30 µM (inactive) | > 30 µM (inactive) |  | > 30 µM (inactive) |  |  | > 30 µM (inactive) |  | C[C@@H](Oc1cc(-n2cnc3ccc(CN4CCN(C)CC4)cc32)sc1C(N)=O)c1ccccc1C(F)(F)F [GSK-461364]
17 | > 30 µM (inactive) | > 30 µM (inactive) | > 30 µM (inactive) | > 30 µM (inactive) | > 30 µM (inactive) | > 30 µM (inactive) | > 30 µM (inactive) | > 30 µM (inactive) |  | CN(C[C@@H]1COCCO1)S(=O)(=O)Nc1ccc2ccc3ncc(-c4cnn(C)c4)cc3c(=O)c2c1 [MK-2461]
18 | > 30 µM (inactive) | > 30 µM (inactive) | > 30 µM (inactive) |  | > 30 µM (inactive) |  |  | > 30 µM (inactive) |  | O=C(NOCCO)c1cc(CN2OCCCC2=O)c(F)c(F)c1Nc1ccc(I)cc1F [RO-4987655]
19 | > 30 µM (inactive) | 1.61 µM (active) | > 30 µM (inactive) |  | > 30 µM (inactive) |  | 0.705 µM (active) | > 30 µM (inactive) | > 30 µM (inactive) | CCS(=O)(=O)c1cccc(-c2cc(C(=O)NC3CCN(C)CC3)c(C)c3[nH]c4ncc(C)cc4c23)c1 [TAK-901]
